The source made the active and inactive calls. The rule behind the calls is not given here.

Among the data in ChEMBL document CHEMBL3045887, “Synthesis and anticonvulsant activity of some N-(benzoyl)glycinanilide derivatives” (Med Chem Res, 2013) are Activity values, retold here.

Data set [1] relates to Mus musculus. Nature of the data set: Anticonvulsant activity in Swiss albino Mus musculus (mouse) assessed as protection against ScMet-induced myoclonic-clonic seizures at 100 mg/kg, ip measured at 0.5 hr. The class given is functional, organism-based. Details: dose 100 mg/kg.
For data set [2], the system named is Mus musculus. Nature of the data set: Neurotoxicity against Swiss albino Mus musculus (mouse) at 30 mg/kg, ip measured at 0.5 hr. The class given is toxicity, organism-based. Details: dose 30 mg/kg, route intraperitoneal. Particulars: in vivo.
The subject of data set [3] is Mus musculus. Nature of the data set: Neurotoxicity against Swiss albino Mus musculus (mouse) at 300 mg/kg, ip measured at 4 hr. The class given is toxicity, organism-based. Details: dose 300 mg/kg, route intraperitoneal. Particulars: in vivo.
In data set [4] the test system is Mus musculus. Nature of the data set: Anticonvulsant activity in Swiss albino Mus musculus (mouse) assessed as protection against ScMet-induced myoclonic-clonic seizures at 30 mg/kg, ip measured at 4 hr. The class given is functional, organism-based. Details: dose 30 mg/kg.
For data set [5], the system named is Mus musculus. The experiment in a line: Neurotoxicity against Swiss albino Mus musculus (mouse) at 30 mg/kg, ip measured at 4 hr. The class given is toxicity, organism-based. Details: dose 30 mg/kg, route intraperitoneal. Particulars: in vivo.
In data set [6] the test system is Mus musculus. The experiment in a line: Anticonvulsant activity in Swiss albino Mus musculus (mouse) assessed as protection against maximal electric shock-induced tonic-clonic seizures at 30 mg/kg, ip measured at 4 hr. The class given is functional, organism-based. Also on record: dose 30 mg/kg.
The test system of data set [7] is Mus musculus. The experiment in a line: Anticonvulsant activity in Swiss albino Mus musculus (mouse) assessed as protection against ScMet-induced myoclonic-clonic seizures at 30 mg/kg, ip measured at 0.5 hr. The class given is functional, organism-based. Details: dose 30 mg/kg.
Data set [8] deals with Mus musculus. The experiment in a line: Anticonvulsant activity in Swiss albino Mus musculus (mouse) assessed as protection against maximal electric shock-induced tonic-clonic seizures at 300 mg/kg, ip measured at 4 hr. Details: dose 300 mg/kg. The class given is functional, organism-based.
For data set [9], the system named is Mus musculus. Nature of the data set: Anticonvulsant activity in Swiss albino Mus musculus (mouse) assessed as protection against maximal electric shock-induced tonic-clonic seizures at 30 mg/kg, ip measured at 0.5 hr. Also on record: dose 30 mg/kg. The class given is functional, organism-based.
The subject of data set [10] is Mus musculus. The experiment in a line: Anticonvulsant activity in Swiss albino Mus musculus (mouse) assessed as protection against maximal electric shock-induced tonic-clonic seizures at 100 mg/kg, ip measured at 0.5 hr. The class given is functional, organism-based. Details: dose 100 mg/kg.
The subject of data set [11] is Mus musculus. The experiment in a line: Anticonvulsant activity in Swiss albino Mus musculus (mouse) assessed as protection against ScMet-induced myoclonic-clonic seizures at 100 mg/kg, ip measured at 4 hr. The class given is functional, organism-based. Details: dose 100 mg/kg.
In data set [12] the test system is Mus musculus. The experiment in a line: Anticonvulsant activity in Swiss albino Mus musculus (mouse) assessed as protection against ScMet-induced myoclonic-clonic seizures at 300 mg/kg, ip measured at 4 hr. The class given is functional, organism-based. Details: dose 300 mg/kg.
Data set [13] relates to Mus musculus. The experiment in a line: Neurotoxicity against Swiss albino Mus musculus (mouse) at 100 mg/kg, ip measured at 4 hr. The class given is toxicity, organism-based. Details: dose 100 mg/kg, route intraperitoneal. Particulars: in vivo.
Data set [14] relates to Mus musculus. The experiment in a line: Anticonvulsant activity in Swiss albino Mus musculus (mouse) assessed as protection against ScMet-induced myoclonic-clonic seizures at 300 mg/kg, ip measured at 0.5 hr. Also on record: dose 300 mg/kg. The class given is functional, organism-based.
Data set [15] relates to Mus musculus. The experiment in a line: Anticonvulsant activity in Swiss albino Mus musculus (mouse) assessed as protection against maximal electric shock-induced tonic-clonic seizures at 300 mg/kg, ip measured at 0.5 hr. The class given is functional, organism-based. Details: dose 300 mg/kg.
The subject of data set [16] is Mus musculus. Nature of the data set: Neurotoxicity against Swiss albino Mus musculus (mouse) at 300 mg/kg, ip measured at 0.5 hr. Particulars: in vivo. The class given is toxicity, organism-based. Also on record: dose 300 mg/kg, route intraperitoneal.
Data set [17] relates to Mus musculus. The experiment in a line: Anticonvulsant activity in Swiss albino Mus musculus (mouse) assessed as protection against maximal electric shock-induced tonic-clonic seizures at 100 mg/kg, ip measured at 4 hr. Details: dose 100 mg/kg. The class given is functional, organism-based.
In data set [18] the test system is Mus musculus. The experiment in a line: Neurotoxicity against Swiss albino Mus musculus (mouse) at 100 mg/kg, ip measured at 0.5 hr. The note with it: in vivo. The class given is toxicity, organism-based. Details: dose 100 mg/kg, route intraperitoneal.

`CC(C)c1ccccc1NC(=O)CNC(=O)c1ccccc1`: the result with Mus musculus [1], in the data set on Mus musculus [4], in the data set with Mus musculus [6], in the data set on Mus musculus [7], with Mus musculus [8] and in the data set with Mus musculus [9] was inactive. Further, the result in the data set with Mus musculus [10], in the data set with Mus musculus [11], with Mus musculus [12], in the data set on Mus musculus [14] and with Mus musculus [17] was inactive. For the same compound, the Activity result with Mus musculus [2], with Mus musculus [3], in the data set with Mus musculus [5], with Mus musculus [13], in the data set on Mus musculus [16] and with Mus musculus [18] was “Non-toxic” throughout. Further, in the data set on Mus musculus [15], the outcome was Active.

Consider `CCc1ccccc1NC(=O)CNC(=O)c1ccccc1`, for which the outcome with Mus musculus [1], with Mus musculus [4], in the data set with Mus musculus [6], with Mus musculus [7], in the data set on Mus musculus [8] and in the data set with Mus musculus [9] was inactive. Moreover, the result with Mus musculus [10], in the data set on Mus musculus [11], with Mus musculus [12], in the data set on Mus musculus [14], in the data set on Mus musculus [15] and with Mus musculus [17] was inactive. The Activity entry with Mus musculus [2], with Mus musculus [3], with Mus musculus [5], in the data set with Mus musculus [13], in the data set with Mus musculus [16] and in the data set with Mus musculus [18] was “Non-toxic” each time.

Consider `COc1ccccc1NC(=O)CNC(=O)c1ccccc1`, for which the outcome in the data set with Mus musculus [1], in the data set with Mus musculus [4], in the data set on Mus musculus [6], in the data set on Mus musculus [7], with Mus musculus [8] and with Mus musculus [9] was inactive. The result in the data set with Mus musculus [10], with Mus musculus [11], with Mus musculus [12], with Mus musculus [14], in the data set with Mus musculus [15] and with Mus musculus [17] was inactive. Besides, the Activity result in the data set on Mus musculus [2], in the data set on Mus musculus [3], in the data set on Mus musculus [5], in the data set with Mus musculus [13], in the data set on Mus musculus [16] and in the data set with Mus musculus [18] was “Non-toxic” each time.

On to `Cc1ccc(C(=O)NCC(=O)Nc2ccccc2)cc1`, for which the result in the data set on Mus musculus [1], with Mus musculus [4], in the data set on Mus musculus [6], in the data set with Mus musculus [7], in the data set with Mus musculus [8] and with Mus musculus [9] was inactive. For the same compound, the result in the data set on Mus musculus [10], in the data set with Mus musculus [11], in the data set on Mus musculus [12], with Mus musculus [15] and with Mus musculus [17] was inactive. Further, the Activity result with Mus musculus [2], in the data set with Mus musculus [3], in the data set on Mus musculus [5], in the data set with Mus musculus [13], in the data set with Mus musculus [16] and in the data set on Mus musculus [18] was “Non-toxic” throughout. The result in the data set with Mus musculus [14] was Active.

Regarding `O=C(CNC(=O)c1ccccc1)Nc1ccccc1`, the result in the data set with Mus musculus [1], in the data set on Mus musculus [4], with Mus musculus [6], with Mus musculus [7], in the data set with Mus musculus [8] and in the data set with Mus musculus [9] was inactive. Also, the outcome with Mus musculus [10], in the data set with Mus musculus [11], in the data set with Mus musculus [12], in the data set on Mus musculus [14] and in the data set with Mus musculus [17] was inactive. For the same compound, the Activity entry in the data set with Mus musculus [2], with Mus musculus [3], with Mus musculus [5], with Mus musculus [13], in the data set with Mus musculus [16] and with Mus musculus [18] was “Non-toxic” in each case. In addition, the outcome in the data set with Mus musculus [15] was Active.

Consider `O=C(CNC(=O)c1ccccc1Cl)Nc1ccccc1`, for which the outcome in the data set on Mus musculus [1], with Mus musculus [4], with Mus musculus [6], in the data set on Mus musculus [7], in the data set with Mus musculus [9] and with Mus musculus [10] was inactive. The outcome in the data set with Mus musculus [11], in the data set with Mus musculus [12], in the data set on Mus musculus [14], in the data set with Mus musculus [15] and with Mus musculus [17] was inactive. The Activity result in the data set with Mus musculus [2], in the data set on Mus musculus [3], with Mus musculus [5], in the data set with Mus musculus [13], in the data set with Mus musculus [16] and in the data set on Mus musculus [18] was “Non-toxic” throughout. Moreover, in the data set with Mus musculus [8], the outcome was Active.

In the case of `Cc1ccccc1NC(=O)CNC(=O)c1ccccc1`, the outcome in the data set on Mus musculus [1], in the data set on Mus musculus [4], in the data set on Mus musculus [6], in the data set on Mus musculus [7], with Mus musculus [8] and in the data set with Mus musculus [9] was inactive. Moreover, the outcome in the data set on Mus musculus [10], in the data set on Mus musculus [11], in the data set on Mus musculus [12], in the data set on Mus musculus [14] and in the data set with Mus musculus [17] was inactive. Also, the Activity entry in the data set on Mus musculus [2], with Mus musculus [3], in the data set on Mus musculus [5], with Mus musculus [13], with Mus musculus [16] and with Mus musculus [18] was “Non-toxic” each time. The result in the data set with Mus musculus [15] was Active.

In the case of `O=C(CNC(=O)c1ccc([N+](=O)[O-])cc1)Nc1ccccc1`, the outcome in the data set with Mus musculus [1], in the data set on Mus musculus [4], in the data set with Mus musculus [6], with Mus musculus [7], with Mus musculus [8] and in the data set on Mus musculus [9] was inactive. Also, the outcome with Mus musculus [10], in the data set on Mus musculus [11], in the data set with Mus musculus [15] and in the data set on Mus musculus [17] was inactive. Besides, the Activity result with Mus musculus [2], in the data set with Mus musculus [3], with Mus musculus [5], in the data set with Mus musculus [13], with Mus musculus [16] and with Mus musculus [18] was “Non-toxic” each time. In addition, the result in the data set with Mus musculus [12] and with Mus musculus [14] was Active.

For `O=C(CNC(=O)c1ccccc1)Nc1ccccc1Cl`, the outcome in the data set on Mus musculus [1], in the data set on Mus musculus [4], with Mus musculus [6], in the data set on Mus musculus [7], in the data set on Mus musculus [8] and with Mus musculus [9] was inactive. The result with Mus musculus [10], in the data set on Mus musculus [11], in the data set on Mus musculus [12], with Mus musculus [14], with Mus musculus [15] and in the data set with Mus musculus [17] was inactive. The Activity entry with Mus musculus [2], in the data set on Mus musculus [3], in the data set with Mus musculus [5], with Mus musculus [13], in the data set with Mus musculus [16] and in the data set on Mus musculus [18] was “Non-toxic” in each case.
